The structures appear in SMILES notation. A value given as a limit tells only on which side of the number the result lay.

The target in experiment [1] is T1, human Cot catalytic domain (30-397 amino acids) (Homo sapiens, UniProt P41279).
T1 construct: Purified recombinant human Cot catalytic domain (30-397 amino acids) was purchased from Cama Biosciences; purchased Cama Biosciences (so in the source)
Kind of experiment: High Throughput Cot Biochemical Assay (KinEASE TR-FRET). Conditions: Cot KinEASE TR-FRET, 400 μM ATP; read-out: IC50 HTRF. In outline:
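Phosphorylation of 1 μM XL665-STK3 peptide by 5 nM Cot catalytic domain was measured by time-resolved FRET using a europium […] antibody. ATP was 400 μM; buffer was 10 mM MOPS pH 7.0 with Mg2+ and DTT.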
(In general: Time-resolved FRET reads energy transfer from a long-lived donor to a nearby acceptor.)

In experiment [2] the test system is TNFα production in LPS-stimulated human monocytes. Kind of experiment: Cot Monocyte TNFα Cell Based Assay. The conditions noted are these: Homo sapiens, Monocyte, LPS-stimulated human monocytes, TNFα TR-FRET; read-out: EC50 TNF. The procedure, abridged:
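Percent-of-control values derive from TR-FRET ratios of TNFα in spun-down media, referenced to unstimulated and LPS-stimulated wells. Exposure: 1 h compound preincubation, then 50 pg/ml LPS for 4 h, both at 37 °C, with 0.5% final DMSO.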

T1 sequence (P41279 30-397): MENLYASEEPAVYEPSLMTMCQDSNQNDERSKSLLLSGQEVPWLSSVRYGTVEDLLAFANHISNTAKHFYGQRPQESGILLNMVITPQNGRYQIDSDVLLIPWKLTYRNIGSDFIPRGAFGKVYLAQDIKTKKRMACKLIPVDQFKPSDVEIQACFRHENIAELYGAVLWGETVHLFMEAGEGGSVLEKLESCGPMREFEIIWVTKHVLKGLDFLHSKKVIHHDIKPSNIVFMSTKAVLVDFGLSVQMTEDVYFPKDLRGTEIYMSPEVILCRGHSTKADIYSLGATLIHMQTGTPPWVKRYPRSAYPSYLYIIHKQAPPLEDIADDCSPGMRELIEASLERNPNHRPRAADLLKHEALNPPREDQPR

For the molecule `[2H][C@](Nc1cc(C#N)c2ncc(C#N)c(NCC(C)(C)C)c2c1)(c1cn(C2(C#N)CC2)nn1)c1ccccc1Cl` [Example 1030, 6-(((2-chlorophenyl)(1-(1-cyanocyclopropyl)-1H-1,2,3-triazol-4-yl)methyl-d)amino)-4-(neopentylamino)quinoline-3,8-dicarbonitrile], the IC50 (as a rule, the concentration that inhibits the measured activity by half) in experiment [1] is 5 nM. Besides, the EC50 (in general, the concentration needed to bring the measured effect to its halfway point) in experiment [2] turned out to be 82 nM.
For `CC(C)(C)CNc1c(C#N)cnc2c(Cl)cc(N[C@@H](c3cccc(-n4cncn4)c3)c3cn(C4CC4)nn3)cc12` [Example 1031, (S)-6-(((3-(1H-1,2,4-triazol-1-yl)phenyl)(1-cyclopropyl-1H-1,2,3-triazol-4-yl)methyl)amino)-8-chloro-4-(neopentylamino)quinoline-3-carbonitrile], the IC50 in experiment [1] turned out to be 1 nM. The EC50 in experiment [2] was 118 nM.
The matching figures for `CC(C)(C)CNc1c(C#N)cnc2c(Cl)cc(N[C@@H](c3cccc(-n4ccnc4)c3)c3cn(C4CC4)nn3)cc12` [Example 1032, (S)-6-(((3-(1H-imidazol-1-yl)phenyl)(1-cyclopropyl-1H-1,2,3-triazol-4-yl)methyl)amino)-8-chloro-4-(neopentylamino)quinoline-3-carbonitrile]: 1 nM and 161 nM.
Consider `CC(C)(C)CNc1c(C#N)cnc2c(Cl)cc(N[C@@H](c3cccc(-n4cccn4)c3)c3cn(C4CC4)nn3)cc12` [Example 1033, (S)-6-(((3-(1H-pyrazol-1-yl)phenyl)(1-cyclopropyl-1H-1,2,3-triazol-4-yl)methyl)amino)-8-chloro-4-(neopentylamino)quinoline-3-carbonitrile], for which, in experiment [1], the IC50 turned out to be 2 nM. Also, in experiment [2], the EC50 is 456 nM.
As for `[2H][C@](Nc1cc(C#N)c2ncc(C#N)c(NC3CCCC3(C)C)c2c1)(c1ccc(F)cc1)c1cn(C2CC2)nn1` (stereo partly drawn) [Example 1034, 6-(((S)-(1-cyclopropyl-1H-1,2,3-triazol-4-yl)(4-fluorophenyl)methyl-d)amino)-4-((2,2-dimethylcyclopentyl)amino) quinoline-3,8-dicarbonitrile], the IC50 in experiment [1] was found to be 4 nM. Moreover, the EC50 in experiment [2] was 93 nM.
As to `CC(C)(CO)CNc1c(C#N)cnc2c(C#N)cc(N[C@H](c3cn(C4(C)CC4)nn3)c3ccccc3Cl)cc12` [Example 1035, (S)-6-(((2-chlorophenyl)(1-(1-methylcyclopropyl)-1H-1,2,3-triazol-4-yl)methyl)amino)-4-((3-hydroxy-2,2-dimethylpropyl)amino)quinoline-3,8-dicarbonitrile], the IC50 in experiment [1] turned out to be 19 nM. Further, the EC50 in experiment [2] is 316 nM.
Taken in the same sequence, the figures for `CC(C)(C)CNc1c(C#N)cnc2c(C#N)cc(N[C@H](c3cn(C4(CF)CC4)nn3)c3ccccc3Cl)cc12` [Example 1036, (S)-6-(((2-chlorophenyl)(1-(1-(fluoromethyl)cyclopropyl)-1H-1,2,3-triazol-4-yl)methyl)amino)-4-(neopentylamino)quinoline-3,8-dicarbonitrile] were 9 nM and 195 nM.
Consider `CC(C)(C)CNc1c(C#N)cnc2c(-c3cncnc3)cc(N[C@H](c3cn(C4(C)CC4)nn3)c3ccccc3Cl)cc12` [Example 1037, (S)-6-(((2-chlorophenyl)(1-(1-methylcyclopropyl)-1H-1,2,3-triazol-4-yl)methyl)amino)-4-(neopentylamino)-8-(pyrimidin-5-yl)quinoline-3-carbonitrile], for which the IC50 in experiment [1] was 102 nM. In addition, in experiment [2], the EC50 was at least 1000 nM.
Consider `Cc1c([C@H](Nc2cc(Cl)c3ncc(C#N)c(NCC(C)(C)C)c3c2)c2cn(C3(C(F)(F)F)CC3)nn2)cccc1-n1cccn1` [Example 1038, (S)-8-chloro-6-(((2-methyl-3-(1H-pyrazol-1-yl)phenyl)(1-(1-(trifluoromethyl)cyclopropyl)-1H-1,2,3-triazo1-4-yl)methyl)amino)-4-(neopentylamino)quinoline-3-carbonitrile], for which the IC50 in experiment [1] is 10 nM. Moreover, in experiment [2], the EC50 is 566 nM.
Taken in the same sequence, the figures for `Cc1c([C@H](Nc2cc(Cl)c3ncc(C#N)c(NCC(C)(C)C)c3c2)c2cn(C3(C(F)(F)F)CC3)nn2)cccc1-n1nccn1` [Example 1039, (S)-8-chloro-6-(((2-methyl-3-(2H-1,2,3-triazol-2-yl)phenyl)(1-(1-(trifluoromethyl)cyclopropyl)-1H-1,2,3-triazol-4-yl)methyl)amino)-4-(neopentylamino)quinoline-3-carbonitrile] were 19 nM and 496 nM.
For the molecule `Cc1c([C@H](Nc2cc(Cl)c3ncc(C#N)c(NCC(C)(C)C)c3c2)c2cn(C3(C(F)(F)F)CC3)nn2)cccc1-n1cncn1` [Example 1040, (S)-8-chloro-6-(((2-methyl-3-(1H-1,2,4-triazol-1-yl)phenyl)(1-(1-(trifluoromethyl)cyclopropyl)-1H-1,2,3-triazol-4-yl)methyl)amino)-4-(neopentylamino)quinoline-3-carbonitrile], the IC50 in experiment [1] stood at 4 nM. Further, in experiment [2], the EC50 came to 87 nM.
As to `Cc1c([C@H](Nc2cc(Cl)c3ncc(C#N)c(NCC(C)(C)C)c3c2)c2cn(C3(C(F)(F)F)CC3)nn2)cccc1-n1ccnc1` [Example 1041, (S)-6-(((3-(1H-imidazol-1-yl)-2-methylphenyl)(1-(1-(trifluoromethyl)cyclopropyl)-1H-1,2,3-triazol-4-yl)methyl)amino)-8-chloro-4-(neopentylamino)quinoline-3-carbonitrile], the IC50 in experiment [1] was 4 nM. In experiment [2], the EC50 was 86 nM.
The matching figures for `Cc1c([C@H](Nc2cc(C#N)c3ncc(C#N)c(NCC(C)(C)C)c3c2)c2cn(C3(C(F)(F)F)CC3)nn2)cccc1-n1ccnc1` [Example 1042]: 2 nM and 105 nM.
On to `Cc1c([C@H](Nc2cc(C#N)c3ncc(C#N)c(NCC(C)(C)C)c3c2)c2cn(C3(C(F)(F)F)CC3)nn2)cccc1-n1cncn1` [Example 1043, (S)-6-(((2-methyl-3-(1H-1,2,4-triazol-1-yl)phenyl)(1-(1-(trifluoromethyl)cyclopropyl)-1H-1,2,3-triazol-4-yl)methyl)amino)-4-(neopentylamino)quinoline-3,8-dicarbonitrile], for which the IC50 in experiment [1] was 3 nM. Moreover, in experiment [2], the EC50 came out at 110 nM.
For `Cc1c([C@H](Nc2cc(C#N)c3ncc(C#N)c(NCC(C)(C)C)c3c2)c2cn(C3(C(F)(F)F)CC3)nn2)cccc1-n1nccn1` [Example 1044, (S)-6-(((2-methyl-3-(2H-1,2,3-triazol-2-yl)phenyl)(1-(1-(trifluoromethyl)cyclopropyl)-1H-1,2,3-triazol-4-yl)methyl)amino)-4-(neopentylamino)quinoline-3,8-dicarbonitrile], in experiment [1], the IC50 turned out to be 8 nM. Moreover, the EC50 in experiment [2] is 214 nM.
Consider `Cc1c([C@H](Nc2cc(C#N)c3ncc(C#N)c(NCC(C)(C)C)c3c2)c2cn(C3(C(F)(F)F)CC3)nn2)cccc1-n1cccn1` [Example 1045, (S)-6-(((2-methyl-3-(1H-pyrazol-1-yl)phenyl)(1-(1-(trifluoromethyl)cyclopropyl)-1H-1,2,3-triazol-4-yl)methyl)amino)-4-(neopentylamino)quinoline-3,8-dicarbonitrile], for which, in experiment [1], the IC50 turned out to be 5 nM. Further, the EC50 in experiment [2] is 268 nM.

The values above are taken from patent US10316017B2, “COT modulators and methods of use thereof” (Gilead Sciences, Inc., priority 2015, dated 2019).
